Laboratory results published in patent publication US20240226228A1, “ANTIMICROBIAL PEPTOID HAVING IMPROVED SELECTIVITY AND ANTIMICROBIAL COMPOSITION COMPRISING SAME” (priority 2021, published 2024).
Values after ≈ are worked out from the molar mass of the structure shown. Where two headings read alike, the source gives them in different places. Where a SMILES comes first, the peptide text is derived from it. [ ]: non-standard residue; d: D form. Gly(N(CH2)2(3-indolyl)) = O=C(O)CNCCc1c[nH]c2ccccc12; Gly(N-CH2CH2-imidazol-4-yl) = O=C(O)CNCCc1c[nH]cn1; Nspe = C[C@H](NCC(=O)O)c1ccccc1; Nphe = O=C(O)CNCc1ccccc1; Nlys = NCCCCNCC(=O)O

Columns and labels:
E. coli ATCC25922 = test system: E. coli ATCC25922
How it was run: (§1)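 Cation-adjusted MHB2 cultures (18 h, subcultured 4 h) adjusted to 2×10^5–5×10^5 CFU/mL in medium with 0.02% BSA and 0.001% acetic acid.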

S. aureus ATCC 25923 = test system: S. aureus ATCC 25923
How it was run: as §1

red blood cells = assay: Hemolysis assay; format: cell-based, Sprague-Dawley mouse
How it was run: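 Peptoid is mixed with 10% (v/v) PBS-washed erythrocytes (male Sprague-Dawley […], 13 weeks) and held 1 h at 37 °C. Hemolysis is calculated from 540 nm absorbance of the supernatant, with PBS as 0% and Triton X-100 as 100%.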

[1] = Tables 11-13, 24 hours at 37° C., maximum concentration 25 μM
[2] = Table 18, TFA salt vs counter ion-substituted (HCl, AcOH) peptoids

SMILES	MIC E. coli ATCC25922 (E. coli ATCC25922; [1])	MIC S. aureus ATCC 25923 (S. aureus ATCC 25923; [1])	HC10 (red blood cells)	HC50 (red blood cells)	Hmax (100 μM) (red blood cells)	MIC E. coli ATCC25922 (E. coli ATCC25922; [2])	MIC S. aureus ATCC 25923 (S. aureus ATCC 25923; [2])	MIC E. coli ATCC25922 (E. coli ATCC25922; ATCC25922)	MIC S. aureus ATCC 25923 (S. aureus ATCC 25923; ATCC 25923)	HD10 (red blood cells)	HD50 (red blood cells)
C[C@@H](c1ccccc1)N(CC(N)=O)C(=O)CN(CCCCN)C(=O)CN(CCCCN)C(=O)CN(C(=O)CN(C(=O)CN(CCCCN)C(=O)CN(CCc1c[nH]c2ccccc12)C(=O)CN(C(=O)CN(CCCCN)C(=O)CN(C(=O)CN(C(=O)CNCCCCN)[C@@H](C)c1ccccc1)[C@@H](C)c1ccccc1)[C@@H](C)c1ccccc1)[C@@H](C)c1ccccc1)[C@@H](C)c1ccccc1 [Peptoid 24]	>25 µM	6.3 µM (≈ 11.5 µg/mL)	>100/>100 μM	>100/>100 μM	1.5 ± 0.0%	–	–	–	–	–	–
C[C@@H](c1ccccc1)N(CC(=O)N(CCCCN)CC(=O)N(CC(=O)N(CC(=O)N(CCCCN)CC(=O)N(CC(=O)N(CC(=O)N(CCCCN)CC(N)=O)[C@@H](C)c1ccccc1)[C@@H](C)c1ccccc1)[C@@H](C)c1ccccc1)[C@@H](C)c1ccccc1)C(=O)CN(C(=O)CN(CCCCN)C(=O)CN(CCc1c[nH]c2ccccc12)C(=O)CNCCc1c[nH]c2ccccc12)[C@@H](C)c1ccccc1 [Peptoid 37-1] (H-[Gly(N(CH2)2(3-indolyl))][Gly(N(CH2)2(3-indolyl))][Nlys][Nspe][Nspe][Nlys][Nspe][Nspe][Nlys][Nspe][Nspe][Nlys]-NH2)	–	–	14.4 µM	56.5 µM	86.6 ± 5.7%	6.3 µM	3.1 µM	–	–	–	–
C[C@@H](c1ccccc1)N(CC(=O)N(CCc1c[nH]cn1)CC(=O)N(CCc1c[nH]c2ccccc12)CC(=O)N(CCc1c[nH]c2ccccc12)CC(N)=O)C(=O)CN(CCCCN)C(=O)CN(CCCCN)C(=O)CN(C(=O)CN(C(=O)CN(CCCCN)C(=O)CN(C(=O)CN(C(=O)CNCCCCN)[C@@H](C)c1ccccc1)[C@@H](C)c1ccccc1)[C@@H](C)c1ccccc1)[C@@H](C)c1ccccc1 [Peptoid 77] (H-[Nlys][Nspe][Nspe][Nlys][Nspe][Nspe][Nlys][Nlys][Nspe][Gly(N-CH2CH2-imidazol-4-yl)][Gly(N(CH2)2(3-indolyl))][Gly(N(CH2)2(3-indolyl))]-NH2)	–	–	–	–	3.2 ± 0.3	–	–	12.5 µM (≈ 23.6 µg/mL)	6.3 µM (≈ 11.9 µg/mL)	>100.0/>100.0	>100.0/>100.0
C[C@@H](c1ccccc1)N(CC(=O)N(CCCCN)CC(=O)N(CCc1c[nH]c2ccccc12)CC(=O)N(CCc1c[nH]c2ccccc12)CC(N)=O)C(=O)CN(CCCCN)C(=O)CN(CCCCN)C(=O)CN(Cc1ccccc1)C(=O)CN(Cc1ccccc1)C(=O)CN(CCCCN)C(=O)CN(C(=O)CN(C(=O)CNCCCCN)[C@@H](C)c1ccccc1)[C@@H](C)c1ccccc1 [Peptoid 40] (H-[Nlys][Nspe][Nspe][Nlys][Nphe][Nphe][Nlys][Nlys][Nspe][Nlys][Gly(N(CH2)2(3-indolyl))][Gly(N(CH2)2(3-indolyl))]-NH2)	12.5 µM (≈ 23 µg/mL)	12.5 µM (≈ 23 µg/mL)	>100/>100 μM	>100/>100 μM	8.9 ± 0.2%	–	–	–	–	–	–
C[C@@H](c1ccccc1)N(CC(=O)N(CCCCN)CC(=O)N(CC(=O)N(CC(N)=O)Cc1ccccc1)Cc1ccccc1)C(=O)CN(CCCCN)C(=O)CN(CCCCN)C(=O)CN(C(=O)CN(C(=O)CN(CCCCN)C(=O)CN(C(=O)CN(C(=O)CNCCCCN)[C@@H](C)c1ccccc1)[C@@H](C)c1ccccc1)[C@@H](C)c1ccccc1)[C@@H](C)c1ccccc1 [Peptoid 45] (H-[Nlys][Nspe][Nspe][Nlys][Nspe][Nspe][Nlys][Nlys][Nspe][Nlys][Nphe][Nphe]-NH2)	>25 µM	25 µM (≈ 44 µg/mL)	>100/>100 μM	>100/>100 μM	4.5 ± 0.2%	–	–	–	–	–	–
C[C@@H](c1ccccc1)N(CC(N)=O)C(=O)CN(C(=O)CN(CCCCN)C(=O)CN(C(=O)CN(C(=O)CN(CCCCN)C(=O)CN(C(=O)CN(C(=O)CN(CCCCN)C(=O)CN(CCc1c[nH]c2ccccc12)C(=O)CN(CCc1c[nH]c2ccccc12)C(=O)CNCCCCN)[C@@H](C)c1ccccc1)[C@@H](C)c1ccccc1)[C@@H](C)c1ccccc1)[C@@H](C)c1ccccc1)[C@@H](C)c1ccccc1 [Peptoid 14-1]	–	–	19.2 µM	68.2 µM	75.3 ± 5.0%	3.1 µM	3.1 µM	–	–	–	–
C[C@@H](c1ccccc1)N(CC(N)=O)C(=O)CN(CCCCN)C(=O)CN(CCCCN)C(=O)CN(C(=O)CN(C(=O)CN(CCCCN)C(=O)CN(C(=O)CN(C(=O)CN(CCCCN)C(=O)CN(Cc1ccccc1)C(=O)CN(Cc1ccccc1)C(=O)CNCCCCN)[C@@H](C)c1ccccc1)[C@@H](C)c1ccccc1)[C@@H](C)c1ccccc1)[C@@H](C)c1ccccc1 [Peptoid 47]	25 µM (≈ 44 µg/mL)	12.5 µM (≈ 22 µg/mL)	>100/>100 μM	>100/>100 μM	4.8 ± 0.2%	–	–	–	–	–	–
C[C@@H](c1ccccc1)N(CC(=O)N(CCCCN)CC(=O)N(CC(=O)N(CC(=O)N(CCCCN)CC(=O)N(CCCCN)CC(=O)N(CC(=O)N(CCCCN)CC(=O)N(CCc1c[nH]c2ccccc12)CC(=O)N(CCc1c[nH]c2ccccc12)CC(N)=O)Cc1ccccc1)[C@@H](C)c1ccccc1)[C@@H](C)c1ccccc1)C(=O)CN(C(=O)CNCCCCN)[C@@H](C)c1ccccc1 [Peptoid 39] (H-[Nlys][Nspe][Nspe][Nlys][Nspe][Nspe][Nlys][Nlys][Nphe][Nlys][Gly(N(CH2)2(3-indolyl))][Gly(N(CH2)2(3-indolyl))]-NH2)	25 µM (≈ 46.3 µg/mL)	6.3 µM (≈ 11.7 µg/mL)	100/>100 μM	100/>100 μM	10.2 ± 0.3%	–	–	–	–	–	–
C[C@@H](c1ccccc1)N(CC(=O)N(CCc1c[nH]c2ccccc12)CC(N)=O)C(=O)CN(CCCCN)C(=O)CN(C(=O)CN(C(=O)CN(CCCCN)C(=O)CN(C(=O)CN(C(=O)CN(CCCCN)C(=O)CN(C(=O)CN(C(=O)CNCCCCN)[C@@H](C)c1ccccc1)[C@@H](C)c1ccccc1)[C@@H](C)c1ccccc1)[C@@H](C)c1ccccc1)[C@@H](C)c1ccccc1)[C@@H](C)c1ccccc1 [Peptoid 7] (H-[Nlys][Nspe][Nspe][Nlys][Nspe][Nspe][Nlys][Nspe][Nspe][Nlys][Nspe][Gly(N(CH2)2(3-indolyl))]-NH2)	6.3 µM (≈ 11.7 µg/mL)	3.1 µM (≈ 5.76 µg/mL)	7.8 µM	23.8 µM	94.1 ± 4.3%	–	–	–	–	–	–
C[C@@H](c1ccccc1)N(CC(=O)N(CCc1c[nH]c2ccccc12)CC(=O)N(CCCCN)CC(=O)N(CC(=O)N(CCc1c[nH]c2ccccc12)CC(=O)N(CCCCN)CC(=O)N(CC(=O)N(CCc1c[nH]c2ccccc12)CC(=O)N(CCCCN)CC(=O)N(CC(=O)N(CCc1c[nH]c2ccccc12)CC(N)=O)[C@@H](C)c1ccccc1)[C@@H](C)c1ccccc1)[C@@H](C)c1ccccc1)C(=O)CNCCCCN [Peptoid 22] (H-[Nlys][Nspe][Gly(N(CH2)2(3-indolyl))][Nlys][Nspe][Gly(N(CH2)2(3-indolyl))][Nlys][Nspe][Gly(N(CH2)2(3-indolyl))][Nlys][Nspe][Gly(N(CH2)2(3-indolyl))]-NH2)	12.5 µM (≈ 24.7 µg/mL)	1.6 µM (≈ 3.16 µg/mL)	6.9 µM	19.4 µM	108.6 ± 1.1%	–	–	–	–	–	–
C[C@@H](c1ccccc1)N(CC(N)=O)C(=O)CN(C(=O)CN(CCCCN)C(=O)CN(C(=O)CN(CCc1c[nH]c2ccccc12)C(=O)CN(CCCCN)C(=O)CN(CCc1c[nH]c2ccccc12)C(=O)CN(C(=O)CN(CCCCN)C(=O)CN(C(=O)CN(C(=O)CNCCCCN)[C@@H](C)c1ccccc1)[C@@H](C)c1ccccc1)[C@@H](C)c1ccccc1)[C@@H](C)c1ccccc1)[C@@H](C)c1ccccc1 [Peptoid 15-1]	–	–	50.4 µM	> 100 µM	33.4 ± 9.7%	6.3 µM	3.1 µM	–	–	–	–
C[C@@H](c1ccccc1)N(CC(=O)N(CCCCN)CC(=O)N(CCc1c[nH]c2ccccc12)CC(=O)N(CCc1c[nH]c2ccccc12)CC(N)=O)C(=O)CN(CCc1c[nH]cn1)C(=O)CN(CCCCN)C(=O)CN(C(=O)CN(C(=O)CN(CCCCN)C(=O)CN(C(=O)CN(C(=O)CNCCCCN)[C@@H](C)c1ccccc1)[C@@H](C)c1ccccc1)[C@@H](C)c1ccccc1)[C@@H](C)c1ccccc1 [Peptoid 78] (H-[Nlys][Nspe][Nspe][Nlys][Nspe][Nspe][Nlys][Gly(N-CH2CH2-imidazol-4-yl)][Nspe][Nlys][Gly(N(CH2)2(3-indolyl))][Gly(N(CH2)2(3-indolyl))]-NH2)	–	–	–	–	5.2 ± 0.2	–	–	6.3 µM (≈ 11.9 µg/mL)	6.3 µM (≈ 11.9 µg/mL)	>100.0/>100.0	>100.0/>100.0
C[C@@H](c1ccccc1)N(CC(N)=O)C(=O)CN(C(=O)CN(CCCCN)C(=O)CN(C(=O)CN(C(=O)CN(CCCCN)C(=O)CN(CCc1c[nH]c2ccccc12)C(=O)CN(CCc1c[nH]c2ccccc12)C(=O)CN(CCCCN)C(=O)CN(CCc1c[nH]c2ccccc12)C(=O)CN(CCc1c[nH]c2ccccc12)C(=O)CNCCCCN)[C@@H](C)c1ccccc1)[C@@H](C)c1ccccc1)[C@@H](C)c1ccccc1 [Peptoid 21]	6.3 µM (≈ 12.4 µg/mL)	1.6 µM (≈ 3.16 µg/mL)	23.2 µM	64.9 µM	83.7 ± 2.0%	–	–	–	–	–	–
C[C@H](NCC(=O)N(CCCCN)CC(=O)N(CC(=O)N(CC(=O)N(CCCCN)CC(=O)N(CC(=O)N(CC(=O)N(CCCCN)CC(=O)N(CC(=O)N(CC(=O)N(CCCCN)CC(=O)N(CC(N)=O)[C@@H](C)c1ccccc1)[C@@H](C)c1ccccc1)[C@@H](C)c1ccccc1)[C@@H](C)c1ccccc1)[C@@H](C)c1ccccc1)[C@@H](C)c1ccccc1)[C@@H](C)c1ccccc1)c1ccccc1 [Peptoid 48] (H-[Nspe][Nlys][Nspe][Nspe][Nlys][Nspe][Nspe][Nlys][Nspe][Nspe][Nlys][Nspe]-NH2)	12.5 µM (≈ 22.7 µg/mL)	3.1 µM (≈ 5.64 µg/mL)	25.7 µM	48.4 µM	79.9 ± 3.6%	–	–	–	–	–	–
